Patent US10918643B2, “No-donors for the treatment of cerebrovascular vasospasms after brain hemorrhage” (Westfaelische Wilhelms-Universitaet Muenster, priority 2015, dated 2021)

What was measured:
[1] = tested on: vasospasm and DCI after SAH; settings: cited from earlier work
[2] = tested on: cerebral vasospasm of the middle cerebral artery (MCA) after aneurismal SAH; assay: Transcranial Doppler (TCD) mean blood flow velocity in the MCAs, rescue treatment of one SAH patient; settings: for MCA TCD R/L PRE, right / MCA TCD R/L PRE, left: continuously infused Molsidomine
[3] = tested on: delayed cerebral ischemia (DCI) after aneurismal SAH; assay: Clinical neurological status and outcome (Hunt&Hess, WFNS, GCS, mNIH-SS, mRS) of the SAH patient; settings: for recurrent clinical deteriorations (times observed): despite Nimodipine and Molsidomine infusions, right- and left-sided deficits or coma
[4] = tested on: cerebral arteries / brain perfusion after aneurismal SAH; assay: Radiology (CT, CT-A, CT-P, DSA/arteriography, MRI) of the SAH patient; assay type: in vivo, human
[5] = 3, 6, and 12 months follow up, continuous Molsidomine plus intraventricular SNP boluses
[6] = Discharge at 38th POD, after Molsidomine + Nimodipine + 7 SNP boluses
[7] = discharge on the 38th day after SAH
[8] = discharge on the 38th day after SAH, Nimodipine + Molsidomine + 7 SNP boluses

SMILES: COc1ccccc1Oc1c(NS(=O)(=O)c2ccc(C)cn2)nc(-c2ccnc(-c3nnn[nH]3)c2)nc1OCCO [Clazosentan]
- outcome despite powerful suppression of (measurable) vasospasms ([1]; Macdonald et al. 2007): does not lead to an improved outcome

SMILES: CCOC(=O)[N-]c1c[n+](N2CCOCC2)no1 [Molsidomine, N-ethoxycarbonyl-3-morpholinosydnonimine]
- TCD mean flow velocity in the left MCA (LMCA) ([2]; 9th day after SAH at deterioration under Molsidomine, before SNP, 140 cm/sec the day before): 150 cm/s
- TCD mean flow velocity in the RMCA ([2]; 9th day after SAH at deterioration under Molsidomine, before SNP, unchanged): 80 cm/s
- MCA TCD R/L PRE, right ([2]; POD 9th first episode (R hemiplegia, aphasia), before 1st SNP dose, mean flow): r: 160/ cm/sec
- MCA TCD R/L PRE, left ([2]; POD 9th first episode, before 1st SNP dose, mean flow): l: 150 cm/sec
- MCA TCD R/L PRE, right ([2]; POD 9th second episode (hemiplegia l, sopor), before 2nd SNP dose): r: 190 cm/sec
- MCA TCD R/L PRE, right ([2]; POD 10th 3rd episode (hemiplegia l, sopor), before 3rd SNP dose): r: 170 cm/sec
- MCA TCD R/L PRE, right ([2]; POD 17th 4th episode (hemiplegia, hemiparesis, sopor, intubation), before 4th SNP dose): R: 170 cm/sec
- MCA TCD R/L PRE, left ([2]; POD 17th 4th episode, before 4th SNP dose): L: 120 cm/sec
- MCA TCD R/L PRE, right ([2]; POD 18 6th episode (still intubated), before 6th SNP dose): R: 160 cm/sec
- MCA TCD R/L PRE, left ([2]; POD 18 6th episode, before 6th SNP dose): L: 110 cm/sec
- MCA TCD R/L PRE, right ([2]; POD 22 7th episode (sudden loss of vigilance), before 7th SNP dose): R: 180 cm/sec
- MCA TCD R/L PRE, left ([2]; POD 22 7th episode, before 7th SNP dose): L: 140 cm/sec
- MCA TCD R/L (values) ([2]; POD 23-38, tapering of Molsidomine and Nimodipine, after 7 SNP boluses): Normal
- mean blood flow velocities in both MCAs ([2]; intravenous Molsidomine at the full dose (16 mg/hr), with Nimodipine): ≤ 160 cm/s
- cognitive deficit [3, 5]: did not have any cognitive deficit
- mNIH-SS [3, 5]: 0
- mRS [3, 5]: 0
- RESULT: cognitive skills [3, 6]: full cognitive
- RESULT: mNIH-SS [3, 6]: mNIH-SS: 0
- RESULT: mRS [3, 6]: mRS: 0
- clinical stabilization (Hunt&Hess grade I, WFNS I) ([3]; Molsidomine given after failure of standard therapy, before vasospasm and DCI progressed): clinical stabilization had been achieved for a week
- recurrent clinical deteriorations (times observed) [3]: 7 times
- Hunt&Hess grade [3, 7]: 0
- cognitive deficit [3, 7]: without cognitive deficit
- mNIH-SS grade [3, 8]: 0
- mRS grade [3, 8]: 0
- clinical status (HH I, WFNS I) ([3]; intravenous Molsidomine at the full dose, for several days): clinically stable
- GCS ([3]; intravenous Molsidomine at the full dose, several days): 14-15
- RADIOLOGY pre SNP (CT; CT-A; CT-P) ([4]; POD 17th 4th episode, before 4th SNP dose, during Molsidomine, both sides l > r, CTT prolonged, high grade vasospasm in MCAs and ACA): impaired perfusion
- RADIOLOGY MRI: temporal ischemic lesion and gliosis at ventricular drainage site ([4]; POD 23-38, tapering of Molsidomine and Nimodipine): MRI (5): tiny
- clinical outcome and cerebral infarction ([1]; SAH patients treated with intravenous molsidomine (Ehlert et al., 2015)): significant improvement in clinical outcome and less cerebral infarction

SMILES: COCCOC(=O)C1=C(C)NC(C)=C(C(=O)OC(C)C)C1c1cccc([N+](=O)[O-])c1 (stereo not drawn) [Nimodipine]
- recurrent clinical deteriorations (times observed) [3]: 7 times
